Columns and labels:
22Rv1 cells [1] = test: MTT cytotoxicity assay in 22Rv1 cells; format: cell-based, human; details: for IC50: Homo sapiens
Description: (§1) Dr. Dr. med. Sonja Loges (University Medical Center Hamburg-Eppendorf, Hamburg, Germany). Cells were cultured according to the manufacturers’ instructions and were recently authenticated by a commercial service (Multiplexion, Heidelberg, Germany). Culture conditions are described in the Supplementary Information.
(§2) MTT (3-(4,5-dimethylthiazol-2-yl)-2,5-diphenyltetrazolium bromide) cytotoxicity assay was used for the evaluation of cytotoxicity of the compounds or their combinations. Experiments were performed as previously described. In brief, 6000 cells/well were seeded in 96-well plate, incubated overnight, and treated with the drugs in 100 µL/well of 10% FBS/RPMI media containing 2 g/L of D-(+)-glucose for 48 h, unless otherwise stated. For 2 h treatment the cells were treated with the drugs for 2 h in the culture media, then the media was exchanged to fresh drug-free media (100 µL/well) containing MTT reagent and the further steps were performed as previously described.

22Rv1 cells [2] = test: Intracellular ROS (CM-H2DCFDA, flow cytometry); format: cell-based, human; details: 2 h of treatment
Description: Intracellular ROS levels were estimated using the ROS-sensitive CM-H2DCFDA reagent (Cat. No. C6827, Molecular probes, Invitrogen, Eugene, OR, USA) as described before. In brief, 22Rv1 cells were seeded in 12-well plates (0.2 × 10^6 cells/well in 1 mL/well of media) and incubated overnight. The media was changed into freshly made pre-warmed 4 µM CM-H2DCFDA/PBS (0.5 mL/well) and incubated for 30 min (37 °C, 5% CO2, in the dark). Then, the CM-H2DCFDA solution was exchanged with 1 mL/well of pre-warmed PBS containing the drugs or H2O2 (positive control) at the indicated concentrations. After 2 h of incubation the cells were trypsinized and immediately analyzed by flow cytometry technique according to the manufacture’s protocols.

22Rv1 cells [3] = test: Trypan blue exclusion viability assay; format: cell-based; details: Homo sapiens, 48 h of treatment
Description: The in vitro effect of the drugs on cell viability and proliferation was evaluated using trypan blue exclusion assay as described before with minor modifications. In brief, cells (0.2 × 10^6 cells/well) were seeded in 12-well plates, incubated overnight, the media was replaced with fresh media (1 mL/well) and treated with the drugs for 48 h. Cells were harvested by trypsination and the viability was measured using trypan blue staining and Beckman Coulter Vi-CELL (Beckman Coulter, Krefeld, Germany).

22Rv1 cells [4] = test: Western blotting of treated cells; format: cell-based, human; details: for LC3B-II and SQSTM1 levels (autophagy markers): pre-cytotoxic and cytotoxic concentrations, 48 h
Description: (§3) Preparation of protein extracts for western blotting was performed as described previously. In brief, for western blotting, 1 × 10^6 cells/well were seeded in Petri dishes (ø 6 cm TC Dish (Sarstedt, Numbrecht, Germany) in 5 mL/dish), incubated overnight and treated with drugs in 5 mL/dish for an indicated time. Cells were harvested using a cell scraper, pelleted, and resuspended in the lysis buffer containing protease and phosphatase inhibitors. Further sample preparation and western blotting were performed as previously described with slight modifications. Relative optical density of the detected bands was quantified with Quantity One 4.6 software (Bio-Rad, Hercules, CA, USA). The primary and secondary antibodies used are listed in the Supplementary Information.

LNCaP cells = test: MTT cytotoxicity assay in LNCaP cells; format: cell-based; details: Homo sapiens, 48 h of treatment, cancer
Description: as §1, §2

RWPE-1 cells = test: MTT cytotoxicity assay in RWPE-1 cells; format: cell-based; details: Homo sapiens, 48 h of treatment, non-cancer
Description: as §1, §2

VCaP cells = test: MTT cytotoxicity assay in VCaP cells; format: cell-based; details: Homo sapiens, 48 h of treatment, cancer
Description: as §1, §2

22Rv1 cells [5] = test: Cell fractionation followed by Western blotting; format: cell-based, human; details: 48 h
Description: as §3
22Rv1 cells were seeded in T75 culture bottles (4 × 10^6 cells/bottle in 20 mL/bottle), treated for 48 h and harvested by scratching. The further separation of cytosolic, mitochondrial and nuclear fractions was performed using the Cell Fractionation Kit ab109719 (abcam, Cambridge, MA) as previously described. Mitochondrial and cytosolic fractions were concentrated using Amicon® Ultra-2 Centrifugal Filter device (Cat. No. UFC203024, Merck, Darmstadt, Germany). Nuclear fractions were additionally homogenized using QIAshedder kit (QIAGEN, Hilden, Germany).

PNT2 cells = test: MTT cytotoxicity assay in PNT2 cells; format: cell-based, human; details: 48 h of treatment
Description: (§4) For general experiments human prostate cancer cell lines PC-3 and DU145 (docetaxel-resistant, androgen-independent, AR-FL(−), AR-V7(−)), 22Rv1 and VCaP (docetaxel-sensitive, androgen-independent, AR-FL(+), AR-V7(+), and LNCaP (docetaxel sensitive, androgen-dependent, AR-FL(+), AR-V7(−) were used. PC-3, 22Rv1, LNCaP cells as well as the human prostate non-cancer cells PNT2 and RWPE-1 were purchased from ATCC (Manassas, VA, USA). VCaP were purchased from ECACC (Salisbury, UK). The human fibroblast cell line MRC-9, the human embryonic kidney cell line HEK 293T, as well as the human umbilical vascular endothelial cell line HUVEC were kindly donated by Prof. Dr. Dr. med. Sonja Loges (University Medical Center Hamburg-Eppendorf, Hamburg, Germany). Cells were cultured according to the manufacturers’ instructions and were recently authenticated by a commercial service (Multiplexion, Heidelberg, Germany). Culture conditions are described in the Supplementary Information.
as §2
(§5) Table S4. Cytotoxic activity of the synthesized compounds. Cytotoxicity was determined in human prostate cancer PC-3 cells versus human prostate non-cancer
(§6) PNT2 cells after 48 h of treatment, as well as its ratio. IC50 was evaluated using MTT assay. SI–selectivity index. #–the IC50s in both cell lines were >100 µM.
(§7) Anisomycin was used as a reference substance.
(§8) No Formula IC50(PC-3) IC50(PNT2) SI […]

HEK293 cells = test: MTT cytotoxicity assay in HEK293 cells; format: cell-based; details: Homo sapiens, 48 h of treatment, non-cancer
Description: as §1, §2

PC-3 cells = test: MTT cytotoxicity assay in PC-3 cells; format: cell-based, human; details: for IC50: 48 h of treatment; for SI [IC50(PNT2) / IC50(PC-3)]: ratio of IC50 in PNT2 cells to IC50 in PC-3 cells, 48 h
Description: as §4, §2, §5, §6, §7, §8

DU145 cells = test: MTT cytotoxicity assay in DU145 cells; format: cell-based; details: Homo sapiens, DU-145, 48 h of treatment, cancer
Description: as §1, §2

22Rv1 cells [6] = test: Colony formation assay; format: cell-based, human; details: 22Rv1 cells treated with non-cytotoxic concentrations for 48 h
Description: Colony formation assays were performed as described before. In brief, cells were treated with the drugs for 48 h and then 100 alive cells were plated into each well of 6-well plates and incubated for 10 days. Surviving colonies were fixed, stained with Giemsa solution and counted.

MRC-9 cells = test: MTT cytotoxicity assay in MRC-9 cells; format: cell-based; details: Homo sapiens, MRC9, 48 h of treatment, non-cancer
Description: as §1, §2

HUVEC cells = test: MTT cytotoxicity assay in HUVEC cells; format: cell-based; details: Homo sapiens, 48 h of treatment, non-cancer
Description: as §1, §2

22Rv1 cells [7] = test: Mitochondrial membrane potential assay (JC-1, flow cytometry); format: cell-based, human; details: 2 h of treatment
Description: The loss of mitochondrial membrane potential (Δψ) was measured by flow cytometry technique using staining with Δψ-sensitive dye JC-1 (5,5′,6,6′-tetrachloro-1,1′,3,3′-tetraethylimidacarbocyanine iodide). Cells were seeded in 12-well plates (100 × 10^3 cells/well in 1 mL/well) and incubated overnight. Then, the media was changed to PBS (1 mL/well) containing the investigational drugs. After 2 h of incubation (37 °C, 5% CO2, in the dark) the cells were trypsinized, pelleted, resuspended in 100 µL of 2 µM JC-1/PBS, incubated for 1 h (37 °C, 5% CO2, in the dark) and Δψ loss was measured by flow cytometry technique.

[8] = test system: human prostate cancer cell lines and human non-cancer cell lines; test: MTT cytotoxicity profile in five prostate cancer versus five non-cancer cell lines; format: cell-based; details: 48 h
Description: as §4
MTT (3-(4,5-dimethylthiazol-2-yl)-2,5-diphenyltetrazolium bromide) cytotoxicity assay was used for the evaluation of cytotoxicity of the compounds or their combinations. Experiments were performed as previously described. […]

[9] = 22Rv1, 48 h of treatment, cancer, read-out: IC50 (22Rv1)
[10] = 22Rv1 cells, 2 h treatment, read-out: IC50 after 2 h of treatment

Row | SMILES | IC50 (22Rv1 cells [3]) | IC50 (22Rv1 cells [1]; [9]) | IC50 (22Rv1 cells [1]; [10]) | AR-FL and AR-V7 expression (22Rv1 cells [4]; 48 h treatment) | LC3B-II and SQSTM1 levels (autophagy markers) (22Rv1 cells [4]) | IC50 (LNCaP cells) | IC50 (RWPE-1 cells) | IC50 (VCaP cells) | IC50 (PNT2 cells; Homo sapiens, PNT2, 48 h) | IC50 (HEK293 cells) | IC50 (PC-3 cells; Homo sapiens, PC-3, 48 h) | SI [IC50(PNT2) / IC50(PC-3)] (PC-3 cells) | IC50 (DU145 cells) | cancer cell colony formation (22Rv1 cells [6]) | IC50 (MRC-9 cells) | IC50 (HUVEC cells) | IC50 (PNT2 cells) | also measured
1 | CC1(C)OC2OC(C(O)COC3=CC(=O)c4c(O)cccc4C3=O)C(O)C2O1 (stereo not shown) [Compound 7] | 3.49 µM | 1.61 µM | 24.2 µM | downregulated both, AR full length (AR-FL) and AR-V7 | accumulation of both, LC3B-II and SQSTM1 | 2.19 µM | 3.39 µM | 8.06 µM | 7.29 µM | 3.57 µM | 6.1 µM | 1.20 | 0.84 µM | suppress cancer cell colony formation | 5.77 µM | 9.04 µM |  | effect of N-acetyl-L-cysteine pre-treatment on cytotoxic activity (22Rv1 cells [1]; 22Rv1 cells, 1 mM NaC 1 h then co-treatment 48 h, FBS- and glucose-free RPMI): significantly suppressed the cytotoxic activity; effect on ROS level (22Rv1 cells [2]): remarkable and significant increase of the ROS level; cleavage of caspase-9 (22Rv1 cells [4]; 2 h and 48 h treatment): observed already after 2 h; Bax and Bcl-2 expression (22Rv1 cells [4]; 48 h treatment): up-regulation of Bax and down-regulation of Bcl-2; release of mitochondrial proteins AIF and cytochrome C (22Rv1 cells [5]): release of mitochondrial proteins; effect on ΔΨm (22Rv1 cells [7]): quick ΔΨm loss
2 | COc1ccc(C[C@H]2NC[C@H](O)[C@H]2OC(C)=O)cc1 [Anisomycin, anisomycin, reference compound] |  |  |  |  |  |  |  |  |  |  |  | 0.47 |  |  |  |  | 0.7 µM | IC50 (PC-3 cells): 1.49 µM; selectivity to prostate cancer cell lines versus non-cancer cell lines [8]: no selectivity was found
3 | CC1(C)OC2OC3C(COC4=CC(=O)c5ccccc5C4=O)OC(C)(C)OC3C2O1 (stereo not shown) [Compound 2] |  |  |  |  |  |  |  |  | 16.2 µM |  | 13.1 µM | 1.24 |  |  |  |  |  | 

Further lines, with some results ahead:

Row | IC50 (22Rv1 cells [3]) | SMILES | IC50 (22Rv1 cells [1]; [9]) | IC50 (22Rv1 cells [1]; [10]) | AR-FL and AR-V7 expression (22Rv1 cells [4]; 48 h treatment) | LC3B-II and SQSTM1 levels (autophagy markers) (22Rv1 cells [4]) | IC50 (LNCaP cells) | IC50 (RWPE-1 cells) | IC50 (VCaP cells) | IC50 (PNT2 cells; Homo sapiens, PNT2, 48 h) | IC50 (HEK293 cells) | IC50 (PC-3 cells; Homo sapiens, PC-3, 48 h) | SI [IC50(PNT2) / IC50(PC-3)] (PC-3 cells) | IC50 (DU145 cells) | cancer cell colony formation (22Rv1 cells [6]) | IC50 (MRC-9 cells) | IC50 (HUVEC cells) | IC50 (PNT2 cells) | also measured
4 | 19.4 µM | O=C1C(OC[C@H]2OC(O)[C@H](O)[C@@H](O)[C@@H]2O)=CC(=O)c2c(O)cccc21 (stereo partly shown) [Compound 8] | 30.1 µM | 92.4 µM | downregulated both, AR full length (AR-FL) and AR-V7 | accumulation of both, LC3B-II and SQSTM1 | 20 µM | 49.8 µM | 56.7 µM | 79.3 µM | 40 µM |  |  | 10.6 µM | suppress cancer cell colony formation | 31.6 µM | 73 µM | 73.7 µM | 
5 | 14.6 µM | O=C1C=C(OC[C@H]2OC(O)[C@H](O)[C@@H](O)[C@@H]2O)C(=O)c2c(O)cccc21 (stereo partly shown) [Compound 12] | 23.4 µM | 94.9 µM | downregulated both, AR full length (AR-FL) and AR-V7 | accumulation of both, LC3B-II and SQSTM1 | 24 µM | 48 µM | 57.5 µM | 103 µM | 69.4 µM |  |  | 37.1 µM | suppress cancer cell colony formation | 153 µM | 45.7 µM |  | 

From paper PMC6896172, “Successful Targeting of the Warburg Effect in Prostate Cancer by Glucose-Conjugated 1,4-Naphthoquinones” (Cancers, 2019)
